The target of assay [1] is T1, avidin (Gallus gallus, UniProt P02701).
T1 construct: mature chain without signal peptide
Put plainly: Inhibition of avidin binding to hydrogen peroxide treated cells. The note with it: avidin conjugate preincubated with competitor; all at 100 μM (biotin 10 μM). On the procedure:
Cells were washed in warm PBS. Cultures were fixed and permeabilised with ice-cold methanol for 15 minutes, rehydrated in PBS before blocking with PBS containing 10% (w/v) normal goat serum (NGS). […] The control, PBS in the absence of competitor, was treated in parallel. […] Fixed cells were incubated with the solutions for 1 hour in the dark at room temperature. The slides were washed three times in PBS before coverslips were mounted on the slides using VECTORSHIELD (RTM) (Vector Laboratories, Peterborough, U.K.), a glycerol-based anti-bleaching mountant.

Assay [2] deals with T1, avidin. Kind of assay: Fluorescent binding assay (FBA) with avidin-FITCS. The note with it: for concentration at which avidin binding reached a maximum: base bound to a substratum of fixed cells, avidin-FITCS. On the procedure:
(§1) Cultures of IMR 32 cells were grown in 96-well plates as described above and allowed to differentiate. Untreated cultures were fixed and permeabilised as above to provide a substrate to which 8-oxodeoxyguanosinewould bind thus permitting FAAs to be performed. Various concentrations of either the normal or the oxidised base were incubated on these plates (100 μl/well) for 1 hour. The ELISA plates were then washed 3 times with PBS before visualising bound base with either avidin-conjugated FITCS (1:200 in PBS for 1 hour) or with a FITCS-conjugated anti-biotin monoclonal antibody (1:80 in PBS for 1 hour). The level of binding was quantified with a fluorescence plate reader (Denley, Billingshurst, U.K.), excitation 485 nm and emission 535 nm.

Assay [3] deals with T1, avidin. Kind of assay: Enzyme-linked avidin binding assay, competition experiments. The note with it: competitor 10 μM, co-incubation, avidin-HRP, paraformaldehyde-fixed DNA. As to the method: Treatment of DNA with methylene blue leads to the oxidation of deoxyguanosine residues to 8-oxodeoxyguanosine. DNA (0.5 mg/ml in water) was incubated in the presence of methylene blue (20 μg/ml final concentration in 0.1 M tris, pH 8.5) in a petri dish on ice shielded from a white light source by 0.5 cm water in an upturned petri dish lid (light source to DNA distance was 3 cm). Irradiation was for 3 hours at which time solid sodium chloride was added to a final concentration of 1 M and the DNA precipitated with ethanol. The DNA was removed and dissolved in de-ionized water. The DNA was re-precipitated and washed twice more to remove any remaining methylene blue.
Avidin-horse radish peroxidase (avidin-HRP) (Sigma) binding to methylene blue-treated DNA was compared to its binding to untreated DNA. Treatment of DNA with methylene blue leads to the generation of oxidised base products including 8-oxodeoxyguanosine. Competition experiments were carried out to define the specificity of binding of avidin to DNA. Damaged and native DNA bind to ELISA plates and in initial experiments, native and methylene blue-treated double-stranded and single-stranded DNA were bound to ELISA plates (Immuno plate MAXISORP (RTM), Nunc) at 50 μg/ml in PBS (50 μl/well). However since it is difficult to quantify the amount of DNA remaining after the various procedures, Millipore MULTISCREEN (RTM)filtration plates were used in this experiment. Native and methylene blue-treated double-stranded and single-stranded DNA ([…] in water) was added to appropriate wells ([…]) of MULTISCREEN-HV 96-well plates. […] Following washing with PBS 3 times, detection of bound peroxidase-labelled avidin was performed using 50 μl/well of o-phenylenediamine (0.5 mg/ml in 0.05 M phosphate-citrate, pH 5.0, and containing 0.03% w/v sodium perborate as a substitute for H2 O2) as substrate; the reaction was stopped after 20 minutes at room temperature using 2M […] (25 μl/well) and the product determined spectrophotometrically at 492 nm. […]

In assay [4] the test system is monoclonal antibody to biotin. Put plainly: Fluorescent binding assay (FBA) with FITCS-conjugated anti-biotin monoclonal antibody. More on the design: species or system goat. The settings on record: base bound to a substratum of fixed cells. On the procedure: Avidin-FITCS conjugate was from Sigma (A 2050), as was monoclonal, goat anti-biotin-FITCS conjugate antibody (clone number BN-34) (F4024).
as §1

Assay [5] deals with T1, avidin. Kind of assay: Capillary electrophoresis analysis of binding. On the procedure:
Capillary electrophoresis was performed using a Beckman […].) controlled by accompanying System Gold (RTM) software. All analyses were carried out using an untreated fused silica capillary of 57 cm total length and 75 μm internal diameter. […] Samples were then placed on ice until analysed by CE. The electrophoresis solution was 10 mM sodium tetraborate (pH 9.3) filtered through a 0.45 μm filter. Samples were loaded using positive pressure (nominal 0.5 psi) for 5 seconds at 25° C. The run time was 10 minutes under an applied voltage of 30 kV with a rise time of 0.17 minutes (approx. 10.2 seconds). Detection was by absorbence at 200 nm and comparison with known standards. Concentration of each compound was estimated from peak height.

Assay [6] deals with IMR 32 cells. Put plainly: cells. On the procedure: After differentiation, media was carefully aspirated and prewarmed Hanks buffered salt solution (HBSS) added to each well (200 μl) with or without various concentrations of freshly prepared hydrogen peroxide. The cultures were incubated with hydrogen peroxide for 1 hour after which the HBSS was replaced with fresh media (α-MEM with 5% (v/v) HIFCS and 1% (v/v) non-essential amino acids) and allowed to recover for 24 hours under standard incubation conditions before cell death was assessed using the MTT assay and binding of avidin assessed by fluorescence analysis.
Cells were prefixed by the addition of 2% (w/v) paraformaldehyde (in phosphate buffered saline (PBS) at pH 7.4) for 15 mins after washing the cells with PBS. Cells were washed in warm PBS. Cultures were fixed and permeabilised with ice-cold methanol for 15 minutes, rehydrated in PBS before blocking with PBS containing 10% (w/v) normal goat serum (NGS). The blocking solution was washed off with PBS containing 0.2% (w/v) NGS.

Assay [7] concerns IMR 32 cells. Kind of assay: MTT assay after UVA exposure. Type of assay: cell-based. The settings on record: α-tocopherol pre-incubation, 24 hours post-irradiation. On the procedure: (§2) Differentiated cells were exposed to UVA irradiation with or without preincubation with the lipid-phase antioxidant α-tocopherol. The level of UVA irradiation was monitored in each experiment with a radiometer. Antioxidant was added to the existing medium 24 hours prior to irradiation at a final concentration of 200 μM (stock made up immediately prior to use in ethanol). […] Medium was removed prior to irradiation and cells washed in HBSS. The cells were irradiated from above at room temperature. Controls were sham irradiated. The cells were fixed as described below.

Assay [8] has as its system IMR 32 cells. Put plainly: UVA exposure with α-tocopherol preincubation, fluorescent assessment of avidin binding. The format is cell-based. The settings on record: 200 μM preincubation. As to the method:
as §2
Cells were washed in warm PBS. Cultures were fixed and permeabilised with ice-cold methanol for 15 minutes, rehydrated in PBS before blocking with PBS containing 10% (w/v) normal goat serum (NGS). […] DNA damage was visualised with avidin-conjugated fluorescein isothiocyanate (FITCS) (1:200 in PBS for 1 hour) or with a FITCS-conjugated anti-biotin monoclonal antibody (1:80 in PBS for 1 hour) for either fluorescence microscopy or for quantitative assessment with a fluorescence plate reader (Denley, Billingshurst, U.K.).

T1 sequence (P02701 25-152): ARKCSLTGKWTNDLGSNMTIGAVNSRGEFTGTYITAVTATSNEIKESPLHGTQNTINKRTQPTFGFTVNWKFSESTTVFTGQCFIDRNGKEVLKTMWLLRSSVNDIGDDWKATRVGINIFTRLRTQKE

For `Nc1nc2c([nH]c(=O)n2[C@H]2C[C@H](O)[C@@H](CO)O2)c(=O)[nH]1` [8-oxodeoxyguanosine], on avidin [1], the “inhibition of avidin-FITCS binding to hydrogen peroxide treated cells” value (“inhibition of avidin-FITCS binding” below) is given as “inhibited binding”. On avidin [2] (assuming 100% binding of 8-oxodeoxyguanosine to the substratum), the “theoretical sensitivity of avidin binding (detectable amount)” value is recorded as 10^4 molecules. The “concentration at which avidin binding reached a maximum” value at avidin [2] was 10^-15 M. The “inhibition of avidin binding to double-stranded, methylene blue treated DNA” value (“inhibition of avidin binding” below) on avidin [3] is “greatest inhibition”. In addition, the “concentration at which binding of the monoclonal antibody to biotin reached a maximum” value in assay [4] is reported as 10^-9 M.
In the case of `Nc1nc2[nH]c(=O)[nH]c2c(=O)[nH]1` [8-oxoguanine], the “rate of binding to avidin” value on avidin [5] (purely chemical system, minimal preincubation) is “extremely rapid”.
`O=C(O)CCCC[C@@H]1SC[C@@H]2NC(=O)N[C@@H]21` [biotin]: at avidin [1], the “inhibition of avidin-FITCS binding” value was “prevented binding”. On avidin [5] (biotin 100 μM, various concentrations of avidin, theoretical values assume 4 biotin molecules per avidin), the “recovery of unbound biotin after incubation with avidin” value is “very close to the theoretical values expected”.
In the case of `Nc1nc2c(ncn2[C@H]2C[C@H](O)[C@@H](CO)O2)c(=O)[nH]1` [deoxyguanosine], the “concentration at which avidin binding reached a maximum” value on avidin [2] is 10^-6 M. For the same molecule, in assay [4], the “concentration at which binding of the monoclonal antibody to biotin reached a maximum” value is on record as 10^-9 M.
In the case of `Nc1nc2nc[nH]c2c(=O)[nH]1` [guanine], at avidin [1], the “inhibition of avidin-FITCS binding” value is reported as “did not”. Further, at avidin [3], the “inhibition of avidin binding” value is given as “inhibited binding”.
As for `Nc1nc2c(ncn2[C@@H]2O[C@H](CO)[C@@H](O)[C@H]2O)c(=O)[nH]1` [guanosine], the “inhibition of avidin binding” value on avidin [3] is listed as “inhibited binding”.
For `OO` [hydrogen peroxide], in the assay with IMR 32 cells [6] (1 hour exposure, 24 hours recovery), the “hydrogen peroxide concentration at which the level of avidin binding plateaued” value is 100 nM. Further, the minimal effective concentration in the assay on IMR 32 cells [6] (Homo sapiens, IMR-32, 1 h, read-out: hydrogen peroxide concentration at which avidin binding was statistically different from control) stood at 0.01 µM.
`Cc1c(C)c2c(c(C)c1O)CCC(C)(CCCC(C)CCCC(C)CCCC(C)C)O2` (stereo not drawn) [α-tocopherol]: in the assay on IMR 32 cells [7], the “effect on UVA-induced increase in MTT metabolism” value is recorded as “prevented”. For the same molecule, in the assay with IMR 32 cells [8] (24 hours post-irradiation), the “effect on avidin binding to UVA irradiated cells, longer periods of irradiation” value is “not effective in reducing binding” and the “effect on avidin binding to UVA irradiated cells, short periods of irradiation” value is “reduced the level of avidin binding”. Further, the “effect on avidin binding over the range of irradiation times studied” value in the assay on IMR 32 cells [8] (multiple range ANOVA) is “significantly (p=0.003) reduced the binding of avidin”.

For the origin of these results see patent US6309825A, “Analytical and therapeutic agents” (University of Leicester, priority 1995, dated 2001).
